Laboratory results reported in patent US9107415B2, “2-(substituted-phenyl)-cyclopentane-1,3-dione compounds, and derivatives thereof” (Syngenta Limited, priority 2011, dated 2015).

What was measured:
Type in all cases: in vivo
[1] = system: Alopecurus myosuroides, blackgrass (ALOMY); test: Biological Example 3 glasshouse screen, post-emergence herbicidal activity; settings: 360 h, 15 DAA, no safener, read-out: ALOMY percentage phytotoxicity; for pest or weed control at 30 g/ha: application rate 30 g/ha; for pest or weed control at 60 g/ha: application rate 60 g/ha
In short: (§1)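 Selectivity screen without safener: 12-day-old plants sprayed post-emergence with acetone/IF50-formulated compound plus 0.2% v/v X-77, kept in glasshouse, visually rated for % injury 15 days after application.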

[2] = system: Lolium perenne, perennial ryegrass (LOLPE); test: as above; settings: 360 h, 15 DAA, no safener, read-out: LOLPE percentage phytotoxicity; for pest or weed control at 30 g/ha: application rate 30 g/ha; for pest or weed control at 60 g/ha: application rate 60 g/ha
In short: as §1

[3] = system: Echinochloa crus galli, barnyardgrass (ECHCG); test: as above; settings: 360 h, 15 DAA, no safener, read-out: ECHCG percentage phytotoxicity; for pest or weed control at 30 g/ha: application rate 30 g/ha; for pest or weed control at 60 g/ha: application rate 60 g/ha
In short: as §1

[4] = system: Avena fatua, wild oats (AVEFA); test: as above; settings: 360 h, 15 DAA, no safener, read-out: AVEFA percentage phytotoxicity; for pest or weed control at 30 g/ha: application rate 30 g/ha; for pest or weed control at 60 g/ha: application rate 60 g/ha
In short: as §1

[5] = system: Alopecurus myosuroides (ALOMY); test: Biological Example 1 glasshouse screen, pre-emergence herbicidal activity; settings: 312 h, application rate 250 g/ha, evaluated after 13 days, read-out: ALOMY percentage phytotoxicity
In short: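 Phytotoxicity was scored visually as % damage (100 = total, 0 = none) 13 days after spraying. Spray was acetone/water (50:50) with 0.5% Tween 20, applied to soil-sown pots 1 day (pre-emergence) or 8 days (post-emergence) after sowing. Glasshouse at 24/16°C, 14 h light, 65% humidity.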

[6] = system: Lolium multiflorum (LOLMU); test: Biological Example 4B (not-previously-formulated compounds) post-emergence herbicidal activity on grassy weeds; settings: 14 DAA, technical compound in IF50 + Adigor, mean of two
Experimental: (§2) Seeds of a variety of test species are sown in standard soil in pots. After cultivation for 14 days under controlled conditions in a glasshouse (at 22/16°C., day/night; 16 hours light; 65% humidity), the plants are sprayed with an aqueous spray solution derived from the formulation of the technical active ingredient dissolved in acetone plus IF50 containing
(§3) 10.56 wt % Emulsogen™EL (castor oil ethoxylate, CAS Registry number 61791-12-6)
(§4) 42.22 wt % N-Methyl pyrrolidone
(§5) 42.22 wt % dipropylene glycol monoethyl ether
(§6) at a 1:20 ratio of (technical active ingredient:IF50). The adjuvant Adigor™(an adjuvant containing inter alia methylated rapeseed oil, e.g. available from Syngenta) is added to form a 0.5% v/v solution. The test plants are then grown on under controlled conditions in the glasshouse (at 22/16°C., day/night; 16 hours light; 65% humidity) and are watered twice daily. After 14 days the test is evaluated (100%=total damage to plant; 0%=no damage to plant).
Post-emergence herbicidal activity (phytotoxicity) data, on certain grassy monocotyledonous weeds and cereal crops in a glasshouse, are measured 14 days after application of the herbicide (14 DAA), for (a) a […] the same time as the herbicide, and (b) for a post-emergence application rate of 30 g/ha of the test herbicide with 50 g/ha of cloquintocet-mexyl safener applied at substantially the same time as the herbicide. Herbicidal activity (phytotoxicity) is evaluated visually, and an assessed percentage phytotoxicity score is given for each herbicidal application on each plant species (with 100%=total damage to plant; 0%=no damage to plant). Two repetitions are made for each experiment, and the mean herbicidal activity (phytotoxicity) data is reported.
Test plants: Avena fatua (AVEFA), Lolium multiflorum (LOLMU), Setaria viridis (SETVI), Poa annua (POAAN), Alopecurus myosuroides (ALOMY). All five of these are grassy monocotyledonous weeds.

[7] = system: Spring Barley “Harrington”; test: Biological Example 4B post-emergence phytotoxicity on cereal crops; settings: 14 DAA, technical compound in IF50 + Adigor, mean of two
Experimental: as §2, §3, §4, §5, §6
Post-emergence herbicidal activity (phytotoxicity) data, on certain grassy monocotyledonous weeds and cereal crops in a glasshouse, are measured 14 days after application of the herbicide (14 DAA), for (a) a post-emergence application rate of 60 g/ha of the test herbicide with or without 50 g/ha of cloquintocet-mexyl safener applied at substantially the same time as the herbicide, and (b) for a post-emergence application rate of 30 g/ha of the test herbicide with 50 g/ha of cloquintocet-mexyl safener applied at substantially the same time as the herbicide. Herbicidal activity (phytotoxicity) is evaluated visually, and an assessed percentage phytotoxicity score is given for each herbicidal application on each plant species (with 100%=total damage to plant; 0%=no damage to plant). Two repetitions are made for each experiment, and the mean herbicidal activity (phytotoxicity) data is reported.

[8] = 30 g/ha, cloquintocet-mexyl 50 g/ha
[9] = 60 g/ha, cloquintocet-mexyl 0 g/ha
[10] = 60 g/ha, cloquintocet-mexyl 50 g/ha

Row | Structure (SMILES) | pest or weed control at 30 g/ha [1] [%] | pest or weed control at 30 g/ha [2] [%] | pest or weed control at 30 g/ha [3] [%] | pest or weed control at 30 g/ha [4] [%] | pest or weed control at 250 g/ha [5] [%] | LOLMU % phytotoxicity [6, 8] [%] | LOLMU % phytotoxicity [6, 9] [%] | LOLMU % phytotoxicity [6, 10] [%] | Spring Barley “Harrington” phytotoxicity (%) [7, 8] [%] | Spring Barley “Harrington” phytotoxicity (%) [7, 9] [%] | Spring Barley “Harrington” phytotoxicity (%) [7, 10] [%] | pest or weed control at 60 g/ha [1] [%] | pest or weed control at 60 g/ha [2] [%] | pest or weed control at 60 g/ha [3] [%] | pest or weed control at 60 g/ha [4] [%] | pest or weed control at 15 g/ha ([1]; application rate 15 g/ha) [%] | pest or weed control at 15 g/ha ([2]; application rate 15 g/ha) [%] | pest or weed control at 15 g/ha ([3]; application rate 15 g/ha) [%] | pest or weed control at 15 g/ha ([4]; application rate 15 g/ha) [%] | LOLMU % phytotoxicity ([6]; 15 g/ha, cloquintocet-mexyl 50 g/ha) [%]
1 | CC#Cc1cc(C)c(C2=C(O)CC(Cc3ccc(C)cn3)C2=O)c(C)c1 (stereo not drawn) [Compound A-8] | 80 | 90 | 70 | 70 | 100 | 68 | 92 | 94 | 18 | 85 | 75 |  |  |  |  |  |  |  |  | 
2 | CC#Cc1cc(C)c(C2=C(O)CC(Cc3ccc(F)cn3)C2=O)c(C)c1 (stereo not drawn) [Compound A-11] | 90 | 80 | 100 | 70 | 90 | 68 | 95 | 88 | 8 | 58 | 13 | 100 | 100 | 100 | 100 |  |  |  |  | 
3 | CC#Cc1cc(C)c(C2=C(O)CC(Cc3ccc(C#N)cn3)C2=O)c(C)c1 (stereo not drawn) [Compound A-14] | 70 | 70 | 90 | 0 | 90 | 88 | 100 | 97 | 70 | 95 | 95 | 90 | 80 | 90 | 60 |  |  |  |  | 
4 | CC#Cc1cc(C)c(C2C(=O)CC(Cc3ccn(C)n3)C2=O)c(C)c1 (stereo not drawn) [Compound A-19] | 100 | 80 | 100 | 90 | 100 | 100 | 100 | 100 | 38 | 98 | 94 |  |  |  |  | 80 | 30 | 70 | 40 | 98
